Species on record: Rattus norvegicus
Test: Open TG-GATES - Regimen: Daily Repeat
Type: toxicity, organism-based, Sprague-Dawley
Set-up: regimen Daily Repeat, gender Male, age 6 weeks
Details: in vivo, po, route gavage; for APTT / Bas / Eos / Fbg / Hb / Ht / Lym / MCH / MCHC / MCV / Mono / Neu / PT / Plat / RBC / Ret / WBC: tissue Blood; for KIDNEY_L / KIDNEY_R / KIDNEY_TOTAL: tissue Kidney; for LIVER: tissue Liver; for ALP / AST / BUN / CRE / Ca / Cl / DBIL / GLC / IP / K / LDH / Na / PL / RALB / TBIL / TC / TG / TP / gamma-GTP: tissue Plasma
[1] = 0 mg/kg, 72 h, dose level Control, time 3 day
[2] = 0 mg/kg, […], dose level Control, time 7 day
[3] = 0 mg/kg, […], dose level Control, time 14 day
[4] = 0 mg/kg, […], dose level Control, time 28 day
[5] = 100 mg/kg, 72 h, dose level Low, time 3 day
[6] = 100 mg/kg, […], dose level Low, time 7 day
[7] = 100 mg/kg, […], dose level Low, time 14 day
[8] = 100 mg/kg, […], dose level Low, time 28 day

## COc1ccc2[nH]c([S+]([O-])Cc3ncc(C)c(OC)c3C)nc2c1 (configuration not stated) [OMEPRAZOLE]
[1]
  TERMINAL_BW: 237.1 g
  APTT: 19.5 s
  Bas: 0%
  Eos: 1.2%
  Fbg: 210.6 mg/dL
  Hb: 13.1 g/dL
  Ht: 38%
  Lym: 80.8%
  MCH: 21.2 pg
  MCHC: 34.4%
  MCV: 61.6 fL
  Mono: 3%
  Neu: 14.8%
  PT: 12.2 s
  Plat: 128.5 x10_4/uL
  RBC: 616.6 x10_4/ul
  Ret: 5.4%
  WBC: 91.3 x10_2/uL
  KIDNEY_L: 1 g
  KIDNEY_R: 1.1 g
  KIDNEY_TOTAL: 2.1 g
  LIVER: 11.7 g
  ALP: 960.2 IU/L
  AST: 66.4 IU/L
  BUN: 15.2 mg/dL
  CRE: 0.4 mg/dL
  Ca: 10.7 mg/dL
  Cl: 102.2 meq/L
  DBIL: 0.07 mg/dL
  GLC: 233.8 mg/dL
  IP: 7 mg/dL
  K: 3.6 meq/L
  LDH: 162.8 IU/L
  Na: 141.6 meq/L
  PL: 144.4 mg/dL
  RALB: 3.3 g/dL
  TBIL: 0.1 mg/dL
  TC: 72.2 mg/dL
  TG: 91.6 mg/dL
  TP: 5.6 g/dL
  gamma-GTP: 1.2 IU/L
[2]
  TERMINAL_BW: 272.8 g
  APTT: 20.8 s
  Bas: 0%
  Eos: 1%
  Fbg: 226.4 mg/dL
  Hb: 13.9 g/dL
  Ht: 40.3%
  Lym: 79.2%
  MCH: 20.8 pg
  MCHC: 34.5%
  MCV: 60.2 fL
  Mono: 3%
  Neu: 16.2%
  PT: 11.9 s
  Plat: 124.2 x10_4/uL
  RBC: 669.6 x10_4/ul
  Ret: 4.8%
  WBC: 124.1 x10_2/uL
  KIDNEY_L: 1.2 g
  KIDNEY_R: 1.2 g
  KIDNEY_TOTAL: 2.3 g
  LIVER: 13.4 g
  ALP: 908.8 IU/L
  AST: 73.8 IU/L
  BUN: 16.8 mg/dL
  CRE: 0.4 mg/dL
  Ca: 10.8 mg/dL
  Cl: 100.8 meq/L
  DBIL: 0.09 mg/dL
  GLC: 205.2 mg/dL
  IP: 7.3 mg/dL
  K: 3.9 meq/L
  LDH: 225.8 IU/L
  Na: 140 meq/L
  PL: 168.4 mg/dL
  RALB: 3.3 g/dL
  TBIL: 0.1 mg/dL
  TC: 78.8 mg/dL
  TG: 144.6 mg/dL
  TP: 5.7 g/dL
  gamma-GTP: 0.8 IU/L
[3]
  TERMINAL_BW: 317.5 g
  APTT: 19.5 s
  Bas: 0%
  Eos: 1%
  Fbg: 215.4 mg/dL
  Hb: 14.7 g/dL
  Ht: 42.6%
  Lym: 79%
  MCH: 20.8 pg
  MCHC: 34.6%
  MCV: 59.9 fL
  Mono: 2.6%
  Neu: 16.2%
  PT: 12.3 s
  Plat: 123.5 x10_4/uL
  RBC: 711 x10_4/ul
  Ret: 3.9%
  WBC: 94.4 x10_2/uL
  KIDNEY_L: 1.3 g
  KIDNEY_R: 1.3 g
  KIDNEY_TOTAL: 2.5 g
  LIVER: 13.5 g
  ALP: 734.6 IU/L
  AST: 61.4 IU/L
  BUN: 17.2 mg/dL
  CRE: 0.5 mg/dL
  Ca: 10.6 mg/dL
  Cl: 102 meq/L
  DBIL: 0.08 mg/dL
  GLC: 222.6 mg/dL
  IP: 6.5 mg/dL
  K: 3.4 meq/L
  LDH: 171 IU/L
  Na: 139.8 meq/L
  PL: 139.6 mg/dL
  RALB: 3.4 g/dL
  TBIL: 0.1 mg/dL
  TC: 69 mg/dL
  TG: 95.4 mg/dL
  TP: 5.7 g/dL
  gamma-GTP: 1 IU/L
[4]
  TERMINAL_BW: 379.8 g
  APTT: 20.9 s
  Bas: 0%
  Eos: 1%
  Fbg: 228.8 mg/dL
  Hb: 15.6 g/dL
  Ht: 45%
  Lym: 83.2%
  MCH: 19.4 pg
  MCHC: 34.8%
  MCV: 55.9 fL
  Mono: 2%
  Neu: 13%
  PT: 12.4 s
  Plat: 110.6 x10_4/uL
  RBC: 804.8 x10_4/ul
  Ret: 2.2%
  WBC: 102.7 x10_2/uL
  KIDNEY_L: 1.3 g
  KIDNEY_R: 1.3 g
  KIDNEY_TOTAL: 2.6 g
  LIVER: 14.7 g
  ALP: 583 IU/L
  AST: 64.8 IU/L
  BUN: 16.6 mg/dL
  CRE: 0.5 mg/dL
  Ca: 10.7 mg/dL
  Cl: 102.6 meq/L
  DBIL: 0.078 mg/dL
  GLC: 235.4 mg/dL
  IP: 5.8 mg/dL
  K: 3.8 meq/L
  LDH: 142.8 IU/L
  Na: 141.2 meq/L
  PL: 137.8 mg/dL
  RALB: 3.4 g/dL
  TBIL: 0.1 mg/dL
  TC: 67.8 mg/dL
  TG: 104.8 mg/dL
  TP: 6 g/dL
  gamma-GTP: 0.8 IU/L
[5]
  TERMINAL_BW: 240.6 g
  APTT: 19 s
  Bas: 0%
  Eos: 1%
  Fbg: 214.2 mg/dL
  Hb: 13.1 g/dL
  Ht: 38.3%
  Lym: 77%
  MCH: 21 pg
  MCHC: 34.2%
  MCV: 61.4 fL
  Mono: 3.4%
  Neu: 18.6%
  PT: 12.3 s
  Plat: 127.7 x10_4/uL
  RBC: 624 x10_4/ul
  Ret: 5.2%
  WBC: 119.7 x10_2/uL
  KIDNEY_L: 1.1 g
  KIDNEY_R: 1.1 g
  KIDNEY_TOTAL: 2.2 g
  LIVER: 12.4 g
  ALP: 887.8 IU/L
  AST: 67.8 IU/L
  BUN: 15.2 mg/dL
  CRE: 0.3 mg/dL
  Ca: 10.6 mg/dL
  Cl: 101.8 meq/L
  DBIL: 0.08 mg/dL
  GLC: 220.6 mg/dL
  IP: 8.8 mg/dL
  K: 3.8 meq/L
  LDH: 157.2 IU/L
  Na: 141.4 meq/L
  PL: 145 mg/dL
  RALB: 3.4 g/dL
  TBIL: 0.1 mg/dL
  TC: 72.6 mg/dL
  TG: 99.2 mg/dL
  TP: 5.6 g/dL
  gamma-GTP: 1.2 IU/L
[6]
  TERMINAL_BW: 271.5 g
  APTT: 20 s
  Bas: 0%
  Eos: 1%
  Fbg: 221 mg/dL
  Hb: 13.5 g/dL
  Ht: 39.5%
  Lym: 82%
  MCH: 20.7 pg
  MCHC: 34.2%
  MCV: 60.6 fL
  Mono: 3.4%
  Neu: 13.2%
  PT: 12.2 s
  Plat: 132.7 x10_4/uL
  RBC: 652 x10_4/ul
  Ret: 4.7%
  WBC: 114.9 x10_2/uL
  KIDNEY_L: 1.1 g
  KIDNEY_R: 1.1 g
  KIDNEY_TOTAL: 2.2 g
  LIVER: 13.3 g
  ALP: 805 IU/L
  AST: 65 IU/L
  BUN: 15.6 mg/dL
  CRE: 0.4 mg/dL
  Ca: 10.6 mg/dL
  Cl: 101.4 meq/L
  DBIL: 0.066 mg/dL
  GLC: 200.4 mg/dL
  IP: 8.3 mg/dL
  K: 4 meq/L
  LDH: 229.6 IU/L
  Na: 140.8 meq/L
  PL: 150 mg/dL
  RALB: 3.4 g/dL
  TBIL: 0.1 mg/dL
  TC: 77.8 mg/dL
  TG: 85.2 mg/dL
  TP: 5.7 g/dL
  gamma-GTP: 0.8 IU/L
[7]
  TERMINAL_BW: 323 g
  APTT: 20.2 s
  Bas: 0%
  Eos: 0.8%
  Fbg: 208.4 mg/dL
  Hb: 14.2 g/dL
  Ht: 40.8%
  Lym: 82.8%
  MCH: 20.5 pg
  MCHC: 34.7%
  MCV: 59.1 fL
  Mono: 2.2%
  Neu: 13.6%
  PT: 12.1 s
  Plat: 133 x10_4/uL
  RBC: 691 x10_4/ul
  Ret: 4.1%
  WBC: 101.4 x10_2/uL
  KIDNEY_L: 1.3 g
  KIDNEY_R: 1.3 g
  KIDNEY_TOTAL: 2.5 g
  LIVER: 14.7 g
  ALP: 771.6 IU/L
  AST: 66.4 IU/L
  BUN: 15.8 mg/dL
  CRE: 0.5 mg/dL
  Ca: 10.3 mg/dL
  Cl: 101.4 meq/L
  DBIL: 0.074 mg/dL
  GLC: 210.8 mg/dL
  IP: 7.9 mg/dL
  K: 3.7 meq/L
  LDH: 198.2 IU/L
  Na: 140.6 meq/L
  PL: 145.8 mg/dL
  RALB: 3.4 g/dL
  TBIL: 0.1 mg/dL
  TC: 73.4 mg/dL
  TG: 96.8 mg/dL
  TP: 5.8 g/dL
  gamma-GTP: 1 IU/L
[8]
  TERMINAL_BW: 390.5 g
  APTT: 21.2 s
  Bas: 0%
  Eos: 1.2%
  Fbg: 210.4 mg/dL
  Hb: 15.1 g/dL
  Ht: 43.9%
  Lym: 79.6%
  MCH: 18.6 pg
  MCHC: 34.3%
  MCV: 54.3 fL
  Mono: 2.2%
  Neu: 16.6%
  PT: 12.3 s
  Plat: 106.5 x10_4/uL
  RBC: 809.8 x10_4/ul
  Ret: 2.6%
  WBC: 100.5 x10_2/uL
  KIDNEY_L: 1.4 g
  KIDNEY_R: 1.3 g
  KIDNEY_TOTAL: 2.7 g
  LIVER: 16.4 g
  ALP: 538.6 IU/L
  AST: 59.2 IU/L
  BUN: 15.4 mg/dL
  CRE: 0.5 mg/dL
  Ca: 10.5 mg/dL
  Cl: 101.4 meq/L
  DBIL: 0.088 mg/dL
  GLC: 220 mg/dL
  IP: 7.3 mg/dL
  K: 3.6 meq/L
  LDH: 174.8 IU/L
  Na: 141.8 meq/L
  PL: 141 mg/dL
  RALB: 3.6 g/dL
  TBIL: 0.1 mg/dL
  TC: 69.2 mg/dL
  TG: 133 mg/dL
  TP: 6.2 g/dL

Source: ChEMBL document CHEMBL3885861, “Open TG-GATES”
